Laboratory results from US20210238170A1, “5,5-Difluoro- and 5-Fluoro-5-Methyl-C-Glycoside Derivatives Useful As Dual SGLT1 / SGLT2 Modulators” (Janssen Pharmaceutica NV, priority 2018, published 2021).
Where two headings read alike, the source gives them in different places.

Experiments:
human SGLT1 = target: T1, human SGLT1 (Homo sapiens, UniProt P13866); assay: SGLT1 in vitro assay: Na-dependent 14C-AMG uptake in CHO-K1 cells stably expressing human SGLT1; format: cell-based; details: for inhibition at 0.3 µM: read-out: SGLT1 % Inh @ 0.3 μM
T1 construct: expressed in transfected cells
T1 sequence (P13866 1-664): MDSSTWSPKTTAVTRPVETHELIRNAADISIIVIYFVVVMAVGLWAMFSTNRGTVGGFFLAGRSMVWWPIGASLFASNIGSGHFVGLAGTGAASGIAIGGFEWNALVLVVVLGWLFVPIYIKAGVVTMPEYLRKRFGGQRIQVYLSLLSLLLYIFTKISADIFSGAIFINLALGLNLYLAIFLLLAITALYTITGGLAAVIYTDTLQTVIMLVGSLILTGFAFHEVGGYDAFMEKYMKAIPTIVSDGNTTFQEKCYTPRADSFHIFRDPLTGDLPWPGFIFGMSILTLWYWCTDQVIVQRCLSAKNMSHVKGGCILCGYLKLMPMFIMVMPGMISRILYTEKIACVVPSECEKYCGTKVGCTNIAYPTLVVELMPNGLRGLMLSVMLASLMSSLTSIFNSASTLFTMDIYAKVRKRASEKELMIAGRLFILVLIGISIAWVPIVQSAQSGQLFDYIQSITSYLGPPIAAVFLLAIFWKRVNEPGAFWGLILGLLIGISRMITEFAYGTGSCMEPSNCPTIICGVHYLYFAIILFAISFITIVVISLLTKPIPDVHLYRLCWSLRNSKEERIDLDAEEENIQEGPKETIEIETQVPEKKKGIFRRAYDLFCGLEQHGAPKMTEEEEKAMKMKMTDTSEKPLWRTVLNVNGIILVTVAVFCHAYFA
In short: (§1)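 Sodium-dependent uptake of 14C-α-methyl-glucopyranoside ([…]) over 2 h at 37°C was counted by scintillation in stable human SGLT2- or SGLT1-CHO-K1 lines pretreated with 10 mM Na-butyrate. Compounds at 0.001–10 μM were preincubated for 10 min in pH 7.4 buffer with 137 mM NaCl; output is %-inhibition or IC50.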

human SGLT2 = target: T2, human SGLT2 (Homo sapiens, UniProt P31639); assay: SGLT2 in vitro assay: Na-dependent 14C-AMG uptake in CHO-K1 cells stably expressing human SGLT2; format: cell-based; details: for inhibition at 0.3 µM: read-out: SGLT2 % Inh @ 0.3 μM
T2 construct: expressed in transfected cells
T2 sequence (P31639 1-672): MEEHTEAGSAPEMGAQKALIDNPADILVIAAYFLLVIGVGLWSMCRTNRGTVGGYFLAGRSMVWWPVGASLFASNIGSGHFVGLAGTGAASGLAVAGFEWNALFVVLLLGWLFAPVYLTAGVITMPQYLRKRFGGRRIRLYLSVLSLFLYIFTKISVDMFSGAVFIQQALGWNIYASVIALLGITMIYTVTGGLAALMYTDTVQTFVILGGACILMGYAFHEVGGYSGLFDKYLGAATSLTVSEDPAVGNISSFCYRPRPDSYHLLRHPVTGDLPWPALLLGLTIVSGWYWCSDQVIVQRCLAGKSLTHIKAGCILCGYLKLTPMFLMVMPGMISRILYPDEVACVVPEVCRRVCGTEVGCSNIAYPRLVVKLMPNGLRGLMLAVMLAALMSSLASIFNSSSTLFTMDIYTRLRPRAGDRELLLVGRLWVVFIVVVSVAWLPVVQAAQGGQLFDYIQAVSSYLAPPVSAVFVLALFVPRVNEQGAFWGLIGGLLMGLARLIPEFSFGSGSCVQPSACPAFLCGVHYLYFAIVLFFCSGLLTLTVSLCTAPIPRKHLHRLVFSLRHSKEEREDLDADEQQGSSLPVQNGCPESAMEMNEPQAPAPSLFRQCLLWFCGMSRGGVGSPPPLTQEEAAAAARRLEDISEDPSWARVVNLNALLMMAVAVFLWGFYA
In short: as §1

SD rats = assay: Oral Glucose Tolerance Test (OGTT) in SD rats: blood glucose excursion AUC and urine glucose excretion; format: in vivo, rat; details: mean ± SE; for Urine Glucose Excretion (g/0-4 hr): n = 8
Protocol: Biological Example 2: In Vivo Assay
Oral Glucose Tolerance Test (OGTT) in SD Rats
Overnight fasted SD rats were allocated into vehicle or test compound treatment groups based on their body weights (n=8 in each group). The animals were orally dosed with vehicle or test compound at a volume of 10 ml/kg at 30-minute prior to OGTT. The animals then received an OGTT challenge with 2 g/kg (50% glucose solution at the volume of 4 ml/kg, orally). The animals were immediately transferred into metabolic cages after they were dosed with the glucose. Blood glucose levels were measured at 0 (pre-OGTT), 30, 60, and 120 minutes after OGTT using one-touch Glucometer. Blood glucose excursion AUC (area under the curve of blood glucose) was determined from the blood glucose levels measured at the timepoints.
Table 9 below, presents the measured efficacy of the test compound(s), expressed as the percentage (%) of blood glucose AUC vs that in vehicle group. The data is interpreted such that, the smaller the percentage of blood glucose AUC of compound vs vehicle, the greater the efficacy of the test compound. Urine volume and urine glucose concentrations (tested by using Olympus system with Genzyme diagnostics assay reagent) were measured to determine the urine glucose excretion (UGE) in 4-hr period after OGTT (0-4 hours).

[1] = 0.3 μM, CHO-K1 cells expressing human SGLT1
[2] = CHO-K1 cells expressing human SGLT1, 14C-AMG uptake
[3] = 0.3 μM, CHO-K1 cells expressing human SGLT2
[4] = CHO-K1 cells expressing human SGLT2, 14C-AMG uptake
[5] = Rattus norvegicus, 2 h, oral dose 1 mg/kg, n = 8, read-out: 120-min Blood Glucose AUC vs Vehicle (%)
[6] = Rattus norvegicus, 2 h, oral dose 10 mg/kg, n = 8, read-out: 120-min Blood Glucose AUC vs Vehicle (%)
[7] = @ 0.3 μM, CHO-K1 cells stably expressing human SGLT1, 14C-AMG uptake
[8] = CHO-K1 cells stably expressing human SGLT1, 14C-AMG uptake, compounds of formula (I) where R0 is fluoro
[9] = @ 0.3 μM, CHO-K1 cells stably expressing human SGLT2, 14C-AMG uptake
[10] = CHO-K1 cells stably expressing human SGLT2, 14C-AMG uptake, compounds of formula (I) where R0 is fluoro

Compound	inhibition at 0.3 µM (human SGLT1; [1]) [%]	IC50 (human SGLT1; [2]) [nM]	inhibition at 0.3 µM (human SGLT2; [3]) [%]	IC50 (human SGLT2; [4]) [nM]	inhibition at 0.3 µM (human SGLT1; [7]) [%]	IC50 (human SGLT1; [8]) [nM]	inhibition at 0.3 µM (human SGLT2; [9]) [%]	IC50 (human SGLT2; [10]) [nM]	response vs control in vivo at 1 mg/kg (SD rats; [5]) [%]	response vs control in vivo at 10 mg/kg (SD rats; [6]) [%]	Urine Glucose Excretion (g/0-4 hr) (SD rats; oral dose 1 mg/kg)	Urine Glucose Excretion (g/0-4 hr) (SD rats; oral dose 10 mg/kg)	response vs control in vivo at 3 mg/kg (SD rats; Rattus norvegicus, 2 h, oral dose 3 mg/kg, n = 8, read-out: 120-min Blood Glucose AUC vs Vehicle (%)) [%]	Urine Glucose Excretion (g/0-4 hr) (SD rats; oral dose 3 mg/kg)
COc1cc(O)c([C@@H]2O[C@H](CO)[C@@](C)(F)[C@H](O)[C@H]2O)cc1Cc1ccc2c(c1)OCCO2 [Compound 6, (2S,3R,4R,5S,6R)-2-(5-((2,3-dihydrobenzo[b][1,4]dioxin-6-yl)methyl)-2-hydroxy-4-methoxyphenyl)-5-fluoro-6-(hydroxymethyl)-5-methyl-tetrahydro-2H-pyran-3,4-diol]	72.6	37	92.8	4.3					71.6 ± 0.7	55.5 ± 1.7	0.000	0.047 ± 0.008		
CCc1ccc(Cc2cc([C@@H]3O[C@H](CO)C(F)(F)[C@H](O)[C@H]3O)c(O)c3c2OCC3)cc1 [Compound 30]					56.7	145	62.4	7.2	86 ± 3.4	72 ± 2.3	0.001 ± 0.0001	0.001 ± 0.0002	80.3 ± 1.6	0.001 ± 0.0002
CCc1cc(O)c([C@@H]2O[C@H](CO)[C@@](C)(F)[C@H](O)[C@H]2O)cc1Cc1ccc(OC)cc1 [Compound 16, (2S,3R,4R,5S,6R)-2-[4-ethyl-2-hydroxy-5-[(4-methoxyphenyl)methyl]phenyl]-5-fluoro-6-(hydroxymethyl)-5-methyl-tetrahydropyran-3,4-diol]	53	151	85.5	2										
OC[C@H]1O[C@@H](c2cc(Cc3ccc(C4CC4)cc3)c(Cl)cc2O)[C@H](O)[C@@H](O)C1(F)F [Compound 136]					68.7	138	90.9	2.1						
COc1cc(O)c([C@@H]2O[C@H](CO)C(F)(F)[C@H](O)[C@H]2O)cc1Cc1ccc(OCF)cc1 [Compound 142]					62.6	234	69.4	3						
Cc1cc(O)c([C@@H]2O[C@H](CO)C(F)(F)[C@H](O)[C@H]2O)cc1Cc1ccc(OC(F)F)cc1 [Compound 96, (2S,3R,4R,6R)-2-[5-[[4-(difluoromethoxy)phenyl]methyl]-2-hydroxy-4-methyl-phenyl]-5,5-difluoro-6-(hydroxymethyl)tetrahydropyran-3,4-diol]					49.1	318	81.4	4.8						
OC[C@H]1O[C@@H](c2cc(Cc3ccc(OCF)cc3)c(Cl)cc2O)[C@H](O)[C@@H](O)C1(F)F [Compound 116, (2S,3R,4R,6R)-2-(4-chloro-5-{[4-(fluoromethoxy)phenyl]methyl}-2-hydroxyphenyl)-5,5-difluoro-6-(hydroxymethyl)oxane-3,4-diol]					65.2	122	85.5	4.5						
CCc1cc(OC)c([C@@H]2O[C@H](CO)C(F)(F)[C@H](O)[C@H]2O)cc1Cc1ccc(C2CC2)cc1 [Compound 151]					52.1	644	88	6.2						

Further compounds by falling IC50 (human SGLT1; [8]), results first:

inhibition at 0.3 µM (human SGLT1; [1]) [%]	IC50 (human SGLT1; [2]) [nM]	inhibition at 0.3 µM (human SGLT2; [3]) [%]	IC50 (human SGLT2; [4]) [nM]	inhibition at 0.3 µM (human SGLT1; [7]) [%]	IC50 (human SGLT1; [8]) [nM]	inhibition at 0.3 µM (human SGLT2; [9]) [%]	IC50 (human SGLT2; [10]) [nM]	Compound	response vs control in vivo at 1 mg/kg (SD rats; [5]) [%]	response vs control in vivo at 10 mg/kg (SD rats; [6]) [%]	Urine Glucose Excretion (g/0-4 hr) (SD rats; oral dose 1 mg/kg)	Urine Glucose Excretion (g/0-4 hr) (SD rats; oral dose 10 mg/kg)	response vs control in vivo at 3 mg/kg (SD rats; Rattus norvegicus, 2 h, oral dose 3 mg/kg, n = 8, read-out: 120-min Blood Glucose AUC vs Vehicle (%)) [%]	Urine Glucose Excretion (g/0-4 hr) (SD rats; oral dose 3 mg/kg)
				61.2	120	76.2	2.7	Cc1cc(O)c([C@@H]2O[C@H](CO)C(F)(F)[C@H](O)[C@H]2O)cc1Cc1ccc(-c2cccc(F)n2)s1 [Compound 70]						
				78.8	95	82.8	44.9	OC[C@H]1O[C@@H](c2cc(Cc3ccc(C4CC4)cc3)c(C3CC3)cc2O)[C@H](O)[C@@H](O)C1(F)F [Compound 141]						
				74.3	74	76.3	3.2	COc1ccc(Cc2cc([C@@H]3O[C@H](CO)C(F)(F)[C@H](O)[C@H]3O)c(O)cc2OC)cc1 [Compound 91, (2S,3R,4R,6R)-5,5-difluoro-2-(2-hydroxy-4-methoxy-5-(4-methoxybenzyl)phenyl)-6-(hydroxymethyl)-tetrahydro-2H-pyran-3,4-diol]	61.6 ± 3.9	41.3 ± 2.3	0.026 ± 0.007	0.089 ± 0.01		
					56		3.8	Cc1cc(O)c([C@@H]2O[C@H](CO)C(F)(F)[C@H](O)[C@H]2O)cc1Cc1cc2ccccc2s1 [Compound 25, (2S,3R,4R,6R)-2-(5-(benzo[b]thiophen-2-ylmethyl)-2-hydroxy-4-methylphenyl)-5,5-difluoro-6-(hydroxymethyl)tetrahydro-2H-pyran-3,4-diol]	67.8 ± 1.7	36.5 ± 1.1	0.001	0.499 ± 0.04		
				83	53	82.4	1.5	CCc1cc(O)c([C@@H]2O[C@H](CO)C(F)(F)[C@H](O)[C@H]2O)cc1Cc1ccc(OCF)cc1 [Compound 148]						
				77.2	41	88.6	1.7	CCc1cc(O)c([C@@H]2O[C@H](CO)C(F)(F)[C@H](O)[C@H]2O)cc1Cc1ccc(OC)cc1 [Compound 88, (2S,3R,4R,6R)-2-(4-ethyl-2-hydroxy-5-(4-methoxybenzyl)phenyl)-5,5-difluoro-6-(hydroxymethyl)-tetrahydro-2H-pyran-3,4-diol]	65.9 ± 1.8	41.6 ± 1.1	0.046 ± 0.014	0.349 ± 0.023		
